From patent US20120202690A1, “HERBICIDAL COMPOUNDS” (SYNGENTA LIMITED, priority 2009, published 2012)

How the values were obtained:
Assay type in all cases: in vivo
[1] = test system: Echinochloa crusgaffi (ECHCG); test: Post-emergence biological efficacy, glasshouse, 500 or 1000 g/ha, evaluated after 13 days (100=total damage to plant; 0=no damage to plant); conditions: Echinochloa, 312 h, rate 1,000 g/ha, read-out: Percentage damage caused to weed species, post-emergence, ECHCG
Method: (§1) Seeds of Alopecurus myosuroides (ALOMY), Setaria faberi (SETFA), Echinochloa […]), Solanum nigrum (SOLNI), Amaranthus retroflexus (AMARE) and Ipomoea hederaceae (IPOHE) were sown in standard soil in pots. […] The test plants were then grown on under controlled conditions in a glasshouse (at 24/16° C., day/night; 14 hours light; 65% humidity) and watered twice daily. […]

[2] = test system: Ipomoea hederaceae (IPOHE); test: as above; conditions: Ipomoea, 312 h, rate 1,000 g/ha, read-out: Percentage damage caused to weed species, post-emergence, IPOHE
Method: as §1

[3] = test system: Alopecurus myosuroides (ALOMY); test: as above; conditions: Alopecurus myosuroides, 312 h, rate 1,000 g/ha, read-out: Percentage damage caused to weed species, post-emergence, ALOMY
Method: as §1

[4] = test system: Solanum nigrum (SOLNI); test: as above; conditions: Solanum nigrum, 312 h, rate 1,000 g/ha, read-out: Percentage damage caused to weed species, post-emergence, SOLNI
Method: as §1

[5] = test system: Amaranthus retroflexus (AMARE); test: as above; conditions: Amaranthus retroflexus, 312 h, rate 1,000 g/ha, read-out: Percentage damage caused to weed species, post-emergence, AMARE
Method: as §1

[6] = test system: Setaria faberi (SETFA); test: as above; conditions: Setaria faberi, 312 h, rate 1,000 g/ha, read-out: Percentage damage caused to weed species, post-emergence, SETFA
Method: as §1

[7] = test system: Ipomoea hederaceae (IPOHE); test: Pre-emergence biological efficacy, glasshouse, 1000 g/ha, evaluated after 13 days (100=total damage to plant; 0=no damage to plant); conditions: Ipomoea, 312 h, rate 1,000 g/ha, read-out: Percentage damage caused to weed species, pre-emergence, IPOHE
Method: (§2) Seeds of Alopecurus myosuroides (ALOMY), Setaria faberi (SETFA), Echinochloa crus-galli (ECHCG), Solanum nigrum (SOLNI), Amaranthus retroflexus (AMARE) and Ipomoea hederaceae (IPOHE) were sown in standard soil in pots. […] The test plants were then grown under controlled conditions in the glasshouse (at 24/16° C., day/night; 14 hours light; 65% humidity) and watered twice daily. […]

[8] = test system: Alopecurus myosuroides (ALOMY); test: as above; conditions: Alopecurus myosuroides, 312 h, rate 1,000 g/ha, read-out: Percentage damage caused to weed species, pre-emergence, ALOMY
Method: as §2

[9] = test system: Solanum nigrum (SOLNI); test: as above; conditions: Solanum nigrum, 312 h, rate 1,000 g/ha, read-out: Percentage damage caused to weed species, pre-emergence, SOLNI
Method: as §2

[10] = test system: Echinochloa crus-galli (ECHCG); test: as above; conditions: Echinochloa crus-galli, 312 h, rate 1,000 g/ha, read-out: Percentage damage caused to weed species, pre-emergence, ECHCG
Method: as §2

[11] = test system: Amaranthus retroflexus (AMARE); test: as above; conditions: Amaranthus retroflexus, 312 h, rate 1,000 g/ha, read-out: Percentage damage caused to weed species, pre-emergence, AMARE
Method: as §2

[12] = test system: Setaria faberi (SETFA); test: as above; conditions: Setaria faberi, 312 h, rate 1,000 g/ha, read-out: Percentage damage caused to weed species, pre-emergence, SETFA
Method: as §2

| Compound | pest or weed control at 1000 g/ha [1] [%] | pest or weed control at 1000 g/ha [2] [%] | pest or weed control at 1000 g/ha [3] [%] | pest or weed control at 1000 g/ha [4] [%] | pest or weed control at 1000 g/ha [5] [%] | pest or weed control at 1000 g/ha [6] [%] | pest or weed control at 1000 g/ha [7] [%] | pest or weed control at 1000 g/ha [8] [%] | pest or weed control at 1000 g/ha [9] [%] | pest or weed control at 1000 g/ha [10] [%] | pest or weed control at 1000 g/ha [11] [%] | pest or weed control at 1000 g/ha [12] [%] |
| --- | --- | --- | --- | --- | --- | --- | --- | --- | --- | --- | --- | --- |
| COC(=O)c1nc(Cl)cc2[nH]cc(C)c12 [Compound 22-124, 6-chloro-4-methoxycarbonyl-3-methyl-1H-pyrrolo[3,2-c]pyridine] | 20 | 80 | 30 | 90 | 80 | 40 | 100 | 70 | 100 | 20 | 100 | 30 |
| COc1c(Cl)ccc(-c2nc3c(c(C(=O)O)n2)NC(c2ccccc2)C(c2ccccc2)N3)c1F (stereo not drawn) [Compound 91-203, 4-Carboxy-2-(4-chloro-2-fluoro-3-methoxyphenyl)-6,7-diphenyl-5,6,7,8-tetrahydropteridine] | 0 | 10 | 0 | 40 | 10 | 10 | 10 | 0 | 20 | 0 | 0 | 0 |
| COC(=O)c1nc(-c2ccc(Cl)c(OC)c2F)nc2nc3ccccc3nc12 [Compound 125-76, 2-(4-chloro-2-fluoro-3-methoxyphenyl)-4-methoxycarbonyl-benzo[g]pteridine] | 70 | 80 | 10 | 90 | 100 | 80 | 60 | 10 | 70 | 20 | 80 | 20 |
| Cc1cc2c(C(=O)O)nc(-c3ccc(Cl)c(F)c3)nc2n1CC1CC1 [Compound 5-21, 4-Carboxy-2-(4-chloro-3-fluorophenyl)-7-cyclopropylmethyl-6-methyl-7H-pyrrolo[2,3-d]pyrimidine] | 10 | 30 | 10 | 50 | 70 | 10 | 30 | 10 | 40 | 0 | 100 | 10 |
| COC(=O)c1nc(-c2ccc(Cl)c(OC)c2F)nc2c1N(Cc1ccc(OC)cc1OC)C(C)N2Cc1ccc(OC)cc1OC (stereo not drawn) [Compound 83-48, 2-(4-Chloro-2-fluoro-3-methoxyphenyl)-7,9-bis(2,4-dimethoxyphenyl-methyl)-6-methoxycarbonyl-8-methyl-8,9-dihydro-7H-purine] | 20 | 10 | 20 | 20 | 0 | 20 | 0 | 0 | 0 | 0 | 0 | 0 |
| COC(=O)c1nc(-c2ccc(Cl)c(OC)c2F)cc2c1c(C)cn2S(=O)(=O)c1ccc(C)cc1 [Compound 40-64, 6-(4-Chloro-2-fluoro-3-methoxyphenyl)-4-methoxycarbonyl-3-methyl-1-(4-methylphenyl-sulphonyl)-1H-pyrrolo[3,2-c]pyridine] | 0 | 50 | 0 | 60 | 0 | 0 | 0 | 0 | 40 | 10 | 0 | 10 |
| COC(=O)c1nc(-c2ccc(Cl)c(OC)c2F)nc2c1cc(C)n2Cc1ccccc1[N+](=O)[O-] [Compound 8-66, 2-(4-Chloro-2-fluoro-3-methoxyphenyl)-4-methoxycarbonyl-6-methyl-7-(2-nitrophenyl-methyl)-7H-pyrrolo[2,3-d]pyrimidine] | 0 | 10 | 0 | 30 | 0 | 0 | 0 | 0 | 10 | 0 | 10 | 0 |
| COc1c(Cl)ccc(-c2nc(C(=O)OC(C)C)c3c(C)c[nH]c3n2)c1F [Compound 1-78, 2-(4-Chloro-2-fluoro-3-methoxyphenyl)-4-isopropoxycarbonyl-5-methyl-7H-pyrrolo[2,3-d]pyrimidine] | 0 | 70 | 0 | 60 | 0 | 0 | 20 | 0 | 40 | 0 | 50 | 0 |
| COC(=O)c1nc(-c2ccc(Cl)c(OC)c2F)nc2c1N(Cc1ccccc1)C(C)N2Cc1ccccc1 (stereo not drawn) [Compound 81-46, 2-(4-chloro-2-fluoro-3-methoxyphenyl)-7,9-dibenzyl-6-methoxycarbonyl-8-methyl-8,9-dihydro-7H-purine] | 0 | 0 | 0 | 10 | 0 | 10 | 0 | 0 | 0 | 0 | 0 | 0 |
| COC(=O)c1nc(-c2ccc(Cl)c(OC)c2F)nc2c1NC(c1ccccc1)C(c1ccccc1)N2 (stereo not drawn) [Compound 91-204, 2-(4-Chloro-2-fluoro-3-methoxyphenyl)-6,7-diphenyl-4-methoxycarbonyl-5,6,7,8-tetrahydropteridine] | 0 | 40 | 0 | 80 | 50 | 0 | 0 | 0 | 10 | 0 | 20 | 0 |
